We go through 2 substances from patent US8178506B2, “Oligomeric compounds and compositions for use in modulation of small non-coding RNAs” (Regulus Therapeutics Inc., priority 2003, dated 2012).

The data set has as its system IL-6 mRNA. Briefly: IL-6 mRNA in LPS-activated primary murine macrophages. In kind it is cell-based, mouse. The note with it: average of 3 treatments. The gist of the method: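 Thioglycollate-elicited peritoneal macrophages from female C57Bl/6 mice, transfected with miRNA-targeting oligomeric compounds via FuGENE 6 (1 μL per 100 nM compound) for ~24–28 h at 37 °C, optionally primed 4 h with 100 ng/mL IFN-gamma, then stimulated 24 h with 100 ng/mL LPS. IL-6 mRNA quantified by real-time PCR.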

In the oligonucleotide strings, read from the 5' end, every base follows the letter of its sugar. An asterisk marks phosphorothioate; unmarked linkages are phosphodiester. Other units and linkages are bracketed, terminal groups are in braces. A string of capitals states the bases alone. e = 2'-O-(2-methoxyethyl) (MOE); [5mC] = 5-methylcytosine

Turning to “327921 (antisense e[5mC]*eT*eT*e[5mC]*e[5mC]*eA*eG*eT*e[5mC]*eG*eG*eG*eG*eA*eT*eG*eT*eT*eT*eA*e[5mC]*eA) [compound 327921]”, the “IL-6 mRNA expression, % UTC” value worked out at 122 % UTC (75 nM, +IFN); 223 % UTC (75 nM, −IFN); 144 % UTC (150 nM, +IFN); 294 % UTC (150 nM, −IFN); 287 % UTC (300 nM, +IFN); 522 % UTC (300 nM, −IFN). Moreover, the “IL-6 mRNA expression, % UTC” value (600 nM, +IFN) is on record as 313 % UTC and the “IL-6 mRNA expression, % UTC” value (600 nM, −IFN) amounted to 632 % UTC.
On to “327941 (antisense eA*eA*e[5mC]*e[5mC]*e[5mC]*eA*e[5mC]*e[5mC]*eG*eA*e[5mC]*eA*eG*e[5mC]*eA*eA*eT*eG*eA*eA*eT*eG*eT*eT) [compound 327941]”, for which the “IL-6 mRNA expression, % UTC” value by setting is: (75 nM, +IFN) 181 % UTC; (75 nM, −IFN) 293 % UTC; (150 nM, +IFN) 197 % UTC; (150 nM, −IFN) 325 % UTC; (300 nM, +IFN) 197 % UTC; (300 nM, −IFN) 271 % UTC. Besides, the “IL-6 mRNA expression, % UTC” value was found to be 301 % UTC (600 nM, +IFN) and 501 % UTC (600 nM, −IFN).
